# In patent US11370776B2, “Sulfonylureas and sulfonylthioureas as NLRP3 inhibitors” (Inflazome Limited, priority 2017, dated 2022):
# Structures can show the parent of a compound that is named as a salt.
# Target: NLRP3 (Homo sapiens, UniProt Q96P20)
# Assay: THP-1 cells pyroptosis assay
# Assay type: cell-based
# Parameters: Seed THP-1 cells (25,000 cells/well) containing 1.0 μg/ml LPS; host or cells: THP-1 cells, LPS-primed, nigericin-stimulated
# Conditions: THP-1 cells, 1.0 μg/ml LPS, nigericin 5 μM, pyroptosis read with resazurin; read-out: THP IC50
# Experimental: The cells were routinely passaged and grown to confluency (˜10^6 cells/ml). On the day of the experiment, THP-1 cells were harvested and resuspended into RPMI medium (without FBS). The cells were then counted and viability (>90%) checked by Trypan blue (Sigma # T8154). […] To this diluted cell solution was added LPS (Sigma # L4524) to give a 1 μg/ml Final Assay Concentration (FAC). 40 μl of the final preparation was aliquoted into each well of a 96-well plate. The plate thus prepared was used for compound screening. THP-1 Cells Pyroptosis Assay The following method step-by-step assay was followed for compound screening. • 1. […] Add 5 μl nigericin (Sigma # N7143) (FAC 5 μM) to all wells • 5. […] At the end of the incubation period, spin plates at 300×g for 3 mins and remove supernatant • 7. Then add 50 μl of resazurin (Sigma # R7017) (FAC 100 μM resazurin in RPMI medium without FBS) and incubate plates for a further 1-2 hrs at 37° C. and 5% CO2 • 8. […] IC50 data is fitted to a non-linear regression equation (log inhibitor vs response-variable slope 4-parameters) [table]
# NLRP3, sequence (Q96P20 whole entry): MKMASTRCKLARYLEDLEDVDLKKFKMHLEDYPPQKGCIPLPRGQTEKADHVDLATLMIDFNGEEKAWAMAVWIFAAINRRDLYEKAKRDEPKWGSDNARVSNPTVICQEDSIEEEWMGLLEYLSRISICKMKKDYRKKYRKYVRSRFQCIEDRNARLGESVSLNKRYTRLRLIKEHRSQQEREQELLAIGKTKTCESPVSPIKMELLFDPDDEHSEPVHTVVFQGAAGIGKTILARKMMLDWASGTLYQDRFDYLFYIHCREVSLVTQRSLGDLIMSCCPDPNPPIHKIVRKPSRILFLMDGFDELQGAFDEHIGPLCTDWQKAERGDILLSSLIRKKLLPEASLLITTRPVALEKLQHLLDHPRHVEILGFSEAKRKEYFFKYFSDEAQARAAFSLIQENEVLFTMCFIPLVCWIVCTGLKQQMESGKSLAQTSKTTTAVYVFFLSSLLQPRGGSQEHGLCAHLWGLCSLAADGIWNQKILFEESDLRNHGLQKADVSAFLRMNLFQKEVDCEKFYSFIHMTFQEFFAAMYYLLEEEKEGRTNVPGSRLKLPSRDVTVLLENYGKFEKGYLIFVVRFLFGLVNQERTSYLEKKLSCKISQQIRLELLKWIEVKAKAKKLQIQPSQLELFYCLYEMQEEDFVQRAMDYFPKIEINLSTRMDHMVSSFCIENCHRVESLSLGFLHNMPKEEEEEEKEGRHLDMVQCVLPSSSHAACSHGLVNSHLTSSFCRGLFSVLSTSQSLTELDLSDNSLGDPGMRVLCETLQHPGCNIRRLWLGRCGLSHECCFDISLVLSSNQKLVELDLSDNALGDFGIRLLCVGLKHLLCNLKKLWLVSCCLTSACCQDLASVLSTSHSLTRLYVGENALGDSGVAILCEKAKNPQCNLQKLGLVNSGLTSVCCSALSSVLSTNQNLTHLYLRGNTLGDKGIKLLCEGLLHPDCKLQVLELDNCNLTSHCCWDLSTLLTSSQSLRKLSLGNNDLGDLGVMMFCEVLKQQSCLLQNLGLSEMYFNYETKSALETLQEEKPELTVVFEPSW
row,SMILES,IC50 [µM]
1,"CC(C)c1cc(F)cc(-c2ccnc(C#N)c2)c1NC(=O)NS(=O)(=O)c1cncc(N(C)C)n1 [Example 34, N-((2-(2-Cyanopyridin-4-yl)-4-fluoro-6-isopropylphenyl)carbamoyl)-6-(dimethylamino)pyrazine-2-sulfonamide]",< 0.8
2,"COc1ccc(S(=O)(=O)NC(=O)Nc2c3c(cc4c2CCC4)CCC3)nn1 [Example 22, N-((1,2,3,5,6,7-Hexahydro-s-indacen-4-yl)carbamoyl)-6-methoxy pyridazine-3-sulfonamide, Potassium Salt]",< 1.6
3,"COc1cc(S(=O)(=O)NC(=O)Nc2c3c(cc4c2CCC4)CCC3)ncn1 [Example 19, N-((1,2,3,5,6,7-Hexahydro-s-indacen-4-yl)carbamoyl)-6-methoxypyrimidine-4-sulfonamide, Potassium Salt]",< 0.8
4,"CN(C)c1cnnc(S(=O)(=O)NC(=O)Nc2c3c(cc4c2CCC4)CCC3)c1 [Example 21, 5-(Dimethylamino)-N-((1,2,3,5,6,7-hexahydro-s-indacen-4-yl)carbamoyl)pyridazine-3-sulfonamide, Potassium Salt]",< 0.8
5,"O=C(Nc1c2c(cc3c1CCC3)CCC2)NS(=O)(=O)c1ccc(Cl)nn1 [Example 11, 6-Chloro-N-((1,2,3,5,6,7-hexahydro-s-indacen-4-yl)carbamoyl) pyridazine-3-sulfonamide, Potassium Salt]",< 10
6,"O=C(Nc1c2c(cc3c1CCC3)CCC2)NS(=O)(=O)c1cnc2ccccc2n1 [Example 30, N-((1,2,3,5,6,7-Hexahydro-s-indacen-4-yl)carbamoyl)quinoxaline-2-sulfonamide, Potassium Salt]",< 10
7,"O=C(Nc1c2c(cc3c1CCC3)CCC2)NS(=O)(=O)c1ccc(=O)[nH]c1 [Example 23, N-((1,2,3,5,6,7-hexahydro-s-indacen-4-yl)carbamoyl)-6-oxo-1,6-dihydropyridine-3-sulfonamide, Potassium Salt]",< 10
8,"COc1cc(-c2cc(F)cc(C(C)C)c2NC(=O)NS(=O)(=O)c2cncc(N(C)C)n2)ccn1 [Example 35, 6-(Dimethylamino)-N-((4-fluoro-2-isopropyl-6-(2-methoxypyridin-4-yl)phenyl)carbamoyl)pyrazine-2-sulfonamide]",< 0.8
9,"COc1cc(S(=O)(=O)NC(=O)Nc2c3c(cc4c2CCC4)CCC3)c(OC)nn1 [Example 12, N-((1,2,3,5,6,7-Hexahydro-s-indacen-4-yl)carbamoyl)-3,6-di methoxypyridazine-4-sulfonamide, potassium salt]",< 1.2
10,"COc1ncccc1S(=O)(=O)NC(=O)Nc1c2c(cc3c1CCC3)CCC2 [Example 15, N-((1,2,3,5,6,7-Hexahydro-s-indacen-4-yl)carbamoyl)-2-methoxypyridine-3-sulfonamide, Potassium Salt]",< 1.2
11,"CN(C)c1ccc(S(=O)(=O)NC(=O)Nc2c3c(cc4c2CCC4)CCC3)nn1 [Example 13, 6-(Dimethylamino)-N-((1,2,3,5,6,7-hexahydro-s-indacen-4-yl)carbamoyl)pyridazine-3-sulfonamide, potassium salt]",< 1.6
12,"COc1cc(-c2cc(F)cc(C(C)C)c2NC(=O)NS(=O)(=O)c2nccnc2C(F)F)ccn1 [Example 43, 3-(Difluoromethyl)-N-((4-fluoro-2-isopropyl-6-(2-methoxypyridin-4-yl)phenyl)carbamoyl)pyrazine-2-sulfonamide]",< 10
13,"O=C(Nc1c2c(cc3c1CCC3)CCC2)NS(=O)(=O)c1cncc(N2CCOCC2)n1 [Example 28, N-((1,2,3,5,6,7-Hexahydro-s-indacen-4-yl)carbamoyl)-6-morpholinopyrazine-2-sulfonamide, Potassium Salt]",< 0.8
14,"COc1cc(-c2ccc3c(c2NC(=O)NS(=O)(=O)c2nccnc2C(F)F)CCC3)ccn1 [Example 44, 3-(Difluoromethyl)-N-((5-(2-methoxypyridin-4-yl)-2,3-dihydro-1H-inden-4-yl)carbamoyl)pyrazine-2-sulfonamide]",< 1.2
15,"O=C(Nc1c2c(cc3c1CCC3)CCC2)NS(=O)(=O)c1ncccn1 [Example 3, N-((1,2,3,5,6,7-Hexahydro-s-indacen-4-yl)carbamoyl) pyrimidine-2-sulfonamide, Potassium Salt]",< 1.6
16,"O=C(Nc1c2c(cc3c1CCC3)CCC2)NS(=O)(=O)c1nccnc1C(F)F [Example 14, 3-(Difluoromethyl)-N-((1,2,3,5,6,7-hexahydro-s-indacen-4-yl)carbamoyl)pyrazine-2-sulfonamide, potassium salt]",< 2
17,"COc1cc(-c2ccc3c(c2NC(=O)NS(=O)(=O)c2cncc(N(C)C)n2)CCC3)ccn1 [Example 36, 6-(Dimethylamino)-N-((5-(2-methoxypyridin-4-yl)-2,3-dihydro-1H-inden-4-yl)carbamoyl)pyrazine-2-sulfonamide]",< 0.8
18,"COc1cc(-c2cc(F)cc(C(C)C)c2NC(=O)NS(=O)(=O)c2nc(C)cc(C)n2)ccn1 [Example 47, N-((4-Fluoro-2-isopropyl-6-(2-methoxypyridin-4-yl)phenyl)carbamoyl)-4,6-dimethylpyrimidine-2-sulfonamide]",< 0.8
19,"CN(C)CCNc1cnc(S(=O)(=O)NC(=O)Nc2c3c(cc4c2CCC4)CCC3)cn1 [Example 25, 5-((2-(Dimethylamino)ethyl)amino)-N-((1,2,3,5,6,7-hexahydro-s-indacen-4-yl)carbamoyl)pyrazine-2-sulfonamide, potassium Salt]",< 0.8
20,"N#Cc1nccnc1S(=O)(=O)NC(=O)Nc1c2c(cc3c1CCC3)CCC2 [Example 24, 3-Cyano-N-((1,2,3,5,6,7-hexahydro-s-indacen-4-yl)carbamoyl)pyrazine-2-sulfonamide, Potassium Salt]",< 10
21,"CCOc1ccncc1S(=O)(=O)NC(=O)Nc1c2c(cc3c1CCC3)CCC2 [Example 32, 4-Ethoxy-N-((1,2,3,5,6,7-hexahydro-s-indacen-4-yl)carbamoyl)pyridine-3-sulfonamide, Potassium Salt]",< 10
22,"CC(C)c1cc(S(=O)(=O)NC(=O)Nc2c3c(cc4c2CCC4)CCC3)ccn1 [Example 57, N-((1,2,3,5,6,7-Hexahydro-s-indacen-4-yl)carbamoyl)-2-isopropylpyridine-4-sulfonamide, Sodium Salt]",< 0.8
23,"O=C(Nc1c2c(cc3c1CCC3)CCC2)NS(=O)(=O)c1cc(C(F)(F)F)cnn1 [Example 16, N-((1,2,3,5,6,7-Hexahydro-s-indacen-4-yl)carbamoyl)-5-(trifluoromethyl)pyridazine-3-sulfonamide, Potassium Salt]",< 10
24,"CN(C)c1cnc(S(=O)(=O)NC(=O)Nc2c(-c3ccncc3)cc(F)c3c2CCC3)cn1 [Example 41, 5-(Dimethylamino)-N-((7-fluoro-5-(pyridin-4-yl)-2,3-dihydro-1H-inden-4-yl)carbamoyl)pyrazine-2-sulfonamide]",< 0.8
25,"O=C(Nc1c(-c2ccncc2)cc(F)c2c1CCC2)NS(=O)(=O)c1nccnc1C(F)F [Example 45, 3-(Difluoromethyl)-N-((7-fluoro-5-(pyridin-4-yl)-2,3-dihydro-1H-inden-4-yl)carbamoyl)pyrazine-2-sulfonamide]",< 10

# Same assay, conditions: THP-1 pyroptosis assay
row,SMILES,NLRP3 inhibitory activity (in words)
1,"COc1cc(-c2cc(F)cc(C(C)C)c2NC(=O)NS(=O)(=O)c2nc(C)cc(C)n2)ccn1 [Example 47, N-((4-Fluoro-2-isopropyl-6-(2-methoxypyridin-4-yl)phenyl)carbamoyl)-4,6-dimethylpyrimidine-2-sulfonamide]",highly active

# Same assay, conditions: THP-1 pyroptosis assay, bound stated; read-out: IC50 value
row,SMILES,IC50 [µM]
1,"O=C(Nc1c2c(cc3c1CCC3)CCC2)NS(=O)(=O)c1ncccn1 [Example 3, N-((1,2,3,5,6,7-Hexahydro-s-indacen-4-yl)carbamoyl) pyrimidine-2-sulfonamide, Potassium Salt]",> 1.2
